From ChEMBL document CHEMBL1201862, “PubChem BioAssay data set” (2004)
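These data come from cells grown in 96-well plates and exposed to compound for 48 hours at five concentrations. GI50 = concentration required for 50% inhibition of growth.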 Activity calls are given as the source filed them. No stated cut-off is given here; in the data, active = GI50 up to about 1.1 µM and inactive = higher.

Tests used:
Experiment in all cases: growth of human tumour cells (NCI), 48 h
[1] = test system: BT-549
[2] = test system: NCI-H460
[3] = test system: KM12
[4] = test system: T47D
[5] = test system: HT-29
[6] = test system: SK-MEL-28
[7] = test system: EKVX
[8] = test system: OVCAR-8
[9] = test system: COLO 205
[10] = test system: UACC-62
[11] = test system: TK-10
[12] = test system: SF-539
[13] = test system: SK-MEL-2
[14] = test system: SNB-75
[15] = test system: NCI-H226
[16] = test system: A549
[17] = test system: HCC 2998
[18] = test system: IGROV-1
[19] = test system: Malme-3M
[20] = test system: OVCAR-3
[21] = test system: OVCAR-4
[22] = test system: LOX IMVI
[23] = test system: SK-OV-3
[24] = test system: SK-MEL-5
[25] = test system: PC-3
[26] = test system: DU-145
[27] = test system: SNB-19
[28] = test system: MDA-MB-435
[29] = test system: UACC-257
[30] = test system: HOP-62
[31] = test system: MOLT-4
[32] = test system: HL-60
[33] = test system: SF-295
[34] = test system: MCF7
[35] = test system: SN12C
[36] = test system: RXF 393
[37] = test system: CAKI-1
[38] = test system: MDA-N
[39] = test system: 786-0
[40] = test system: HOP-92
[41] = test system: ACHN
[42] = test system: SW-620
[43] = test system: M14
[44] = test system: RPMI-8226
[45] = test system: HCT-116
[46] = test system: NCI-H23
[47] = test system: NCI/ADR-RES
[48] = test system: NCI-H522
[49] = test system: UO-31
[50] = test system: SF-268
[51] = test system: HCT-15
[52] = test system: Hs-578T
[53] = test system: K562
[54] = test system: MDA-MB-231
[55] = test system: U-251
[56] = test system: SR
[57] = test system: OVCAR-5
[58] = test system: A498
[59] = test system: CCRF-CEM

`Cc1c(C2CCSc3ccccc3N2)sc2ccccc12` (stereo not drawn) was tested, and the GI50 [1] was > 100000 nM (inactive), the GI50 [2] was 90200 nM (inactive) and the GI50 [3] was 65600 nM (inactive). The GI50 [4] was 87900 nM (inactive), the GI50 [5] was 54800 nM (inactive) and the GI50 [6] was > 100000 nM (inactive). For the same compound, the GI50 [7] was 30900 nM (inactive), the GI50 [8] was > 100000 nM (inactive) and the GI50 [9] was > 100000 nM (inactive). For the same compound, the GI50 [10] was > 100000 nM (inactive), the GI50 [11] was > 100000 nM (inactive) and the GI50 [12] was > 100000 nM (inactive). The GI50 [13] was > 100000 nM (inactive), the GI50 [14] was 98200 nM (inactive) and the GI50 [15] was > 100000 nM (inactive). The GI50 [16] was 99800 nM (inactive), the GI50 [17] was 80400 nM (inactive) and the GI50 [18] was > 100000 nM (inactive). The GI50 [19] was 64300 nM (inactive), the GI50 [20] was > 100000 nM (inactive) and the GI50 [21] was 62700 nM (inactive). For the same compound, the GI50 [22] was > 100000 nM (inactive), the GI50 [23] was > 100000 nM (inactive) and the GI50 [24] was > 100000 nM (inactive). For the same compound, the GI50 [25] was > 100000 nM (inactive), the GI50 [26] was > 100000 nM (inactive) and the GI50 [27] was > 100000 nM (inactive). For the same compound, the GI50 [28] was 35200 nM (inactive), the GI50 [29] was 99800 nM (inactive) and the GI50 [30] was > 100000 nM (inactive). The GI50 [31] was 77300 nM (inactive), the GI50 [32] was 55500 nM (inactive) and the GI50 [33] was > 100000 nM (inactive). For the same compound, the GI50 [34] was 62200 nM (inactive), the GI50 [35] was > 100000 nM (inactive) and the GI50 [36] was 86500 nM (inactive). The GI50 [37] was 52500 nM (inactive), the GI50 [38] was 39800 nM (inactive) and the GI50 [39] was > 100000 nM (inactive). The GI50 [40] was > 100000 nM (inactive), the GI50 [41] was > 100000 nM (inactive) and the GI50 [42] was > 100000 nM (inactive). The GI50 [43] was > 100000 nM (inactive), the GI50 [44] was > 100000 nM (inactive) and the GI50 [45] was 62100 nM (inactive). The GI50 [46] was > 100000 nM (inactive), the GI50 [47] was 46000 nM (inactive) and the GI50 [48] was 47000 nM (inactive). For the same compound, the GI50 [49] was 52500 nM (inactive), the GI50 [50] was > 100000 nM (inactive) and the GI50 [51] was 74500 nM. The GI50 [52] was > 100000 nM (inactive), the GI50 [53] was 51500 nM (inactive) and the GI50 [54] was > 100000 nM (inactive). For the same compound, the GI50 [55] was > 100000 nM (inactive).
`CO[C@H]1C[C@H](O[C@H]2CC[C@]3(C=O)[C@H]4CC[C@]5(C)[C@@H](C6=CC(=O)OC6)CC[C@]5(O)[C@@H]4CC[C@]3(O)C2)O[C@H](C)[C@H]1O[C@@H]1O[C@H](CO)[C@@H](O)[C@H](O)[C@H]1O` was tested, and the GI50 [1] was 0.0122 nM (active), the GI50 [2] was 0.00904 nM (active) and the GI50 [3] was 0.091 nM (active). The GI50 [4] was 0.0553 nM (active), the GI50 [5] was 0.0303 nM (active) and the GI50 [6] was 0.0643 nM (active). For the same compound, the GI50 [7] was 0.007 nM (active), the GI50 [8] was 0.0334 nM (active) and the GI50 [9] was 0.11 nM (active). For the same compound, the GI50 [10] was 0.0617 nM (active), the GI50 [11] was 0.0248 nM (active) and the GI50 [12] was 0.0203 nM (active). For the same compound, the GI50 [13] was 0.0826 nM (active), the GI50 [14] was 0.051 nM (active) and the GI50 [15] was 0.0785 nM (active). For the same compound, the GI50 [16] was 0.00446 nM (active), the GI50 [17] was > 10 nM (active) and the GI50 [18] was > 10 nM (active). The GI50 [19] was 0.027 nM (active), the GI50 [20] was 0.00767 nM (active) and the GI50 [21] was 0.00863 nM (active). For the same compound, the GI50 [22] was 0.0261 nM (active), the GI50 [23] was 0.0423 nM (active) and the GI50 [24] was 0.0262 nM (active). The GI50 [25] was 0.0206 nM (active), the GI50 [26] was 0.00634 nM (active) and the GI50 [27] was 0.0893 nM (active). The GI50 [28] was 0.0461 nM (active), the GI50 [29] was 0.0822 nM (active) and the GI50 [30] was 0.0126 nM (active). The GI50 [31] was 0.00542 nM (active), the GI50 [32] was > 10 nM (active) and the GI50 [33] was 0.0204 nM (active). For the same compound, the GI50 [56] was > 10 nM (active), the GI50 [35] was 0.0105 nM (active) and the GI50 [57] was 0.0352 nM (active). The GI50 [36] was 0.0151 nM (active), the GI50 [37] was 0.0134 nM (active) and the GI50 [38] was 0.0394 nM (active). The GI50 [39] was > 10 nM (active), the GI50 [40] was 0.0583 nM (active) and the GI50 [41] was 0.00916 nM (active). For the same compound, the GI50 [58] was 0.0581 nM (active), the GI50 [42] was 0.0316 nM (active) and the GI50 [43] was 0.0473 nM (active). The GI50 [44] was 0.037 nM (active), the GI50 [45] was 0.00973 nM (active) and the GI50 [46] was 0.00787 nM (active). The GI50 [47] was 0.0115 nM (active), the GI50 [48] was 0.00687 nM (active) and the GI50 [49] was 0.0349 nM (active). The GI50 [50] was 0.0119 nM (active), the GI50 [51] was 0.0394 nM and the GI50 [52] was > 10 nM (active). The GI50 [53] was > 10 nM (active), the GI50 [59] was > 10 nM (active) and the GI50 [54] was 0.173 nM (active). The GI50 [55] was 0.0407 nM (active).
